{"source": "paper PMC6407913", "about": "“DREADD Agonist 21 Is an Effective Agonist for Muscarinic-Based DREADDs in Vitro and in Vivo” (ACS Pharmacology & Translational Science, 2018)", "key": {"[1]": {"biological_target": "318 nonolfactory human GPCRs (Homo sapiens, UniProt Q15743)", "sequence (Q15743 whole entry)": "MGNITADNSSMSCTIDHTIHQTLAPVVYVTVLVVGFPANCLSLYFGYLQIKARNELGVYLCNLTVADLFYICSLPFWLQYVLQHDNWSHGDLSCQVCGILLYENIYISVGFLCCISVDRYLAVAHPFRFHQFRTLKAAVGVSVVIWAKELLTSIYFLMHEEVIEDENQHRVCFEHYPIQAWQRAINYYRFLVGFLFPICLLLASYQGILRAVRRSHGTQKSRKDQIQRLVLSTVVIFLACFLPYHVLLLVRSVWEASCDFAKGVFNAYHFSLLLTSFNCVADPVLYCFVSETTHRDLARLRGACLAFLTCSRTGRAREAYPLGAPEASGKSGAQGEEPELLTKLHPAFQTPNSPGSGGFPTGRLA", "type": "cell-based", "details": "GPR68; C21 5 µM"}, "[2]": {"biological_target": "T1, 318 nonolfactory human GPCRs (Homo sapiens, UniProt Q9BPV8)", "T1 construct": "expressed in transfected cells; host or cells: HTLA cells, transient", "type": "cell-based", "details": "P2RY13; C21 5 µM"}, "[3]": {"biological_target": "318 nonolfactory human GPCRs (Homo sapiens, UniProt P25025)", "sequence (P25025 whole entry)": "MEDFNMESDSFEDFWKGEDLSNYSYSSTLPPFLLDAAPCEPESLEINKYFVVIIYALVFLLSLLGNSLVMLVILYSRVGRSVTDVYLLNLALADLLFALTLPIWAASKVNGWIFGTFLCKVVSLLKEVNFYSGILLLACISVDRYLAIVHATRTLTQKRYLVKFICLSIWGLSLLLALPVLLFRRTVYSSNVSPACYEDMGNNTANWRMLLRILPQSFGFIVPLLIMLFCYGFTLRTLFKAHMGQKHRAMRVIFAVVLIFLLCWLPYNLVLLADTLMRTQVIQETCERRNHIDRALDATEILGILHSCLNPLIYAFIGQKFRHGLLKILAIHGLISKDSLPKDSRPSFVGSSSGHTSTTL", "type": "cell-based", "details": "CXCR2; C21 5 µM"}, "[4]": {"biological_target": "T2, 318 nonolfactory human GPCRs (Homo sapiens, UniProt Q9BXC1)", "T2 construct": "expressed in transfected cells; host or cells: HTLA cells, transient", "type": "cell-based", "details": "GPR174; C21 5 µM"}, "[5]": {"biological_target": "318 nonolfactory human GPCRs (Homo sapiens, UniProt P25090)", "sequence (P25090 whole entry)": "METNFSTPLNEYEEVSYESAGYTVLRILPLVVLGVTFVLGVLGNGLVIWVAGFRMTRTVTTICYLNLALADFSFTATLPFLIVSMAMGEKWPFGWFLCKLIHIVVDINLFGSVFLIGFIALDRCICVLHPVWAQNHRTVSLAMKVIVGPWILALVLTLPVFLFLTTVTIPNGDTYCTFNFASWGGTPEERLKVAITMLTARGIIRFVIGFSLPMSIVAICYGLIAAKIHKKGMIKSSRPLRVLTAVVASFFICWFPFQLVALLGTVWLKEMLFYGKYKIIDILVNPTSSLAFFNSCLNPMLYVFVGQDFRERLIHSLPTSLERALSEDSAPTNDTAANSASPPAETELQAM", "type": "cell-based", "details": "FPR2; C21 5 µM"}, "[6]": {"biological_target": "318 nonolfactory human GPCRs (Homo sapiens, UniProt P21728)", "sequence (P21728 whole entry)": "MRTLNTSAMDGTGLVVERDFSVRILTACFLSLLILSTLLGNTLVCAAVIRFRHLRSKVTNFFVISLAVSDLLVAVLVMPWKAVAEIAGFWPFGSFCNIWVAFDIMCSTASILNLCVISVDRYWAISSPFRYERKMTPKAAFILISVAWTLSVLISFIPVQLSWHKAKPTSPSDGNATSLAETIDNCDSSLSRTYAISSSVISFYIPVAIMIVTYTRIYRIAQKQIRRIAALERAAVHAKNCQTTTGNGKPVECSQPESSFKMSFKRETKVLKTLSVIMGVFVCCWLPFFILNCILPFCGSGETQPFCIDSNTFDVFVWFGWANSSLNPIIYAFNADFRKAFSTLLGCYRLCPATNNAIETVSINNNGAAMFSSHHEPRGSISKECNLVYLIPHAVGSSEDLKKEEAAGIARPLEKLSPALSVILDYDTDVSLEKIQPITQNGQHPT", "type": "cell-based", "details": "DRD1; C21 5 µM"}, "[7]": {"biological_target": "T3, 318 nonolfactory human GPCRs (Homo sapiens, UniProt Q9BXA5)", "T3 construct": "expressed in transfected cells; host or cells: HTLA cells, transient", "type": "cell-based", "details": "SUCNR1; C21 5 µM"}, "[8]": {"biological_target": "318 nonolfactory human GPCRs (Homo sapiens, UniProt P28223)", "sequence (P28223 whole entry)": "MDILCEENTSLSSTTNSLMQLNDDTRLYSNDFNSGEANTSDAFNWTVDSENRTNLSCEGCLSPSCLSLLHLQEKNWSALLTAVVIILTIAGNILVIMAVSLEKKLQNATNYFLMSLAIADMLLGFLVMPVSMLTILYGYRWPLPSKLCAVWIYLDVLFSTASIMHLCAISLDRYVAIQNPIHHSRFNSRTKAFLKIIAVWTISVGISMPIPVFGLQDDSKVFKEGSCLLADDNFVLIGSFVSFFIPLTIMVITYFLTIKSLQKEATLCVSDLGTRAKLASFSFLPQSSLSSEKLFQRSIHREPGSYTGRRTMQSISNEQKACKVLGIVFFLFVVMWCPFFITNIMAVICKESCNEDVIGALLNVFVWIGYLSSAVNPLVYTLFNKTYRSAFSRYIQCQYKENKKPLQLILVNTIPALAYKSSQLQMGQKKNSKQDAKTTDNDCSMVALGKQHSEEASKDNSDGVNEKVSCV", "type": "cell-based", "details": "HTR2A; C21 5 µM"}, "[9]": {"tested_on": "318 nonolfactory human GPCRs", "type": "cell-based", "details": "for FOLD OVER BASAL: C21 5 µM"}, "[10]": {"biological_target": "T4, 318 nonolfactory human GPCRs (Homo sapiens, UniProt Q96LB1)", "T4 construct": "expressed in transfected cells; host or cells: HTLA cells, transient", "type": "cell-based", "details": "MRGPRX2; C21 5 µM"}, "[11]": {"biological_target": "T5, 318 nonolfactory human GPCRs (Homo sapiens, UniProt P25105)", "T5 construct": "expressed in transfected cells; host or cells: HTLA cells, transient", "type": "cell-based", "details": "PTAFR; C21 5 µM"}, "[12]": {"biological_target": "T6, 318 nonolfactory human GPCRs (Homo sapiens, UniProt Q9HC97)", "T6 construct": "expressed in transfected cells; host or cells: HTLA cells, transient", "type": "cell-based", "details": "GPR35; C21 5 µM"}, "[13]": {"biological_target": "T7, 318 nonolfactory human GPCRs (Homo sapiens, UniProt P08912)", "T7 construct": "expressed in transfected cells; host or cells: HTLA cells, transient", "type": "cell-based", "details": "CHRM5; C21 5 µM"}, "[14]": {"biological_target": "T8, 318 nonolfactory human GPCRs (Homo sapiens, UniProt Q9Y5N1)", "T8 construct": "expressed in transfected cells; host or cells: HTLA cells, transient", "type": "cell-based", "details": "HRH3; C21 5 µM"}, "[15]": {"biological_target": "T9, 318 nonolfactory human GPCRs (Homo sapiens, UniProt Q9BZJ6)", "T9 construct": "expressed in transfected cells; host or cells: HTLA cells, transient", "type": "cell-based", "details": "GPR63; C21 5 µM"}, "[16]": {"biological_target": "T10, 318 nonolfactory human GPCRs (Homo sapiens, UniProt Q969N4)", "T10 construct": "expressed in transfected cells; host or cells: HTLA cells, transient", "type": "cell-based", "details": "TAAR8; C21 5 µM"}, "[17]": {"biological_target": "T11, 318 nonolfactory human GPCRs (Homo sapiens, UniProt P50052)", "T11 construct": "expressed in transfected cells; host or cells: HTLA cells, transient", "type": "cell-based", "details": "AGTR2; C21 5 µM"}, "[18]": {"biological_target": "T12, 318 nonolfactory human GPCRs (Homo sapiens, UniProt Q9Y2T5)", "T12 construct": "expressed in transfected cells; host or cells: HTLA cells, transient", "type": "cell-based", "details": "GPR52; C21 5 µM"}, "[19]": {"biological_target": "T13, 318 nonolfactory human GPCRs (Homo sapiens, UniProt Q96P67)", "T13 construct": "expressed in transfected cells; host or cells: HTLA cells, transient", "type": "cell-based", "details": "GPR82; C21 5 µM"}, "[20]": {"biological_target": "T14, 318 nonolfactory human GPCRs (Homo sapiens, UniProt P46663)", "T14 construct": "expressed in transfected cells; host or cells: HTLA cells, transient", "type": "cell-based", "details": "BDKBR1; C21 5 µM"}, "[21]": {"biological_target": "T15, 318 nonolfactory human GPCRs (Homo sapiens, UniProt P33032)", "T15 construct": "expressed in transfected cells; host or cells: HTLA cells, transient", "type": "cell-based", "details": "MC5R; C21 5 µM"}, "[22]": {"biological_target": "T16, 318 nonolfactory human GPCRs (Homo sapiens, UniProt P48146)", "T16 construct": "expressed in transfected cells; host or cells: HTLA cells, transient", "type": "cell-based", "details": "NPBW2; C21 5 µM"}, "[23]": {"biological_target": "T17, 318 nonolfactory human GPCRs (Homo sapiens, UniProt P32302)", "T17 construct": "expressed in transfected cells; host or cells: HTLA cells, transient", "type": "cell-based", "details": "CXCR5; C21 5 µM"}, "[24]": {"biological_target": "T18, 318 nonolfactory human GPCRs (Homo sapiens, UniProt Q8NFN8)", "T18 construct": "expressed in transfected cells; host or cells: HTLA cells, transient", "type": "cell-based", "details": "GPR156; C21 5 µM"}, "hM3Dq in LH-vGAT neurons": {"tested_on": "hM3Dq in LH-vGAT neurons", "experiment": "food intake, hM3Dq in LH-vGAT neurons", "type": "in vivo, mice", "details": "0.3, 1.0, 3.0 mg/kg"}, "hM4Di [25]": {"biological_target": "T19, hM4Di (Homo sapiens, UniProt P08173, A203G/Y113C)", "T19 sequence (P08173 1-479 Y113C/A203G)": "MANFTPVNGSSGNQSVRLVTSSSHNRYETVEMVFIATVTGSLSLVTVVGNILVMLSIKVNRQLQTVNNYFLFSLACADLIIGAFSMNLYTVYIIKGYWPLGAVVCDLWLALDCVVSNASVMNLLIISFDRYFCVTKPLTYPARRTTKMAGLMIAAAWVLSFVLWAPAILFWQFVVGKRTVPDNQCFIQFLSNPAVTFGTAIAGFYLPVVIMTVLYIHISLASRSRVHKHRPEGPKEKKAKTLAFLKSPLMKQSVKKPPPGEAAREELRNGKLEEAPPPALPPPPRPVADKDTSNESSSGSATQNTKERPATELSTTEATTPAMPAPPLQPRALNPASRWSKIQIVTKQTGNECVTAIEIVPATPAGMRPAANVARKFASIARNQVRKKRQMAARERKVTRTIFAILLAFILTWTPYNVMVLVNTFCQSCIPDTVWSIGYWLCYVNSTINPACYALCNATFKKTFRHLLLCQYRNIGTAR", "experiment": "whole-cell [3H]NMS competition binding"}, "hM4Di [26]": {"biological_target": "T19, hM4Di", "experiment": "inhibition of isoproterenol-stimulated cAMP production", "type": "cell-based", "parameters": "expressed in transfected cells", "details": "inhibition of isoproterenol elevated cAMP, mean (±SEM)"}}, "note": "Several values for one entry are separate records, joined by “and”; a condition that tells them apart may be missing. Equal values may be shown once. Read-outs that look alike come from different tables or passages of the source.", "data": [{"smiles": "c1ccc2c(c1)N=C(N1CCNCC1)c1ccccc1N2", "note": "[C21, 11-(1-piperazinyl)-5H-dibenzo[b,e][1,4]diazepine]", "values": [{"measurement": "FOLD OVER BASAL", "setting": "[1]", "value": "0.6 fold and 1 fold and 0.8 fold"}, {"measurement": "FOLD OVER BASAL", "setting": "[2]", "value": "0.8 fold and 1 fold and 1.2 fold"}, {"measurement": "FOLD OVER BASAL", "setting": "[3]", "value": "0.9 fold and 1 fold"}, {"measurement": "FOLD OVER BASAL", "setting": "[4]", "value": "0.6 fold and 0.9 fold and 0.5 fold"}, {"measurement": "FOLD OVER BASAL", "setting": "[5]", "value": "1 fold and 1.1 fold and 0.9 fold"}, {"measurement": "FOLD OVER BASAL", "setting": "[6]", "value": "0.9 fold and 0.8 fold and 0.5 fold and 0.6 fold"}, {"measurement": "FOLD OVER BASAL", "setting": "[7]", "value": "0.6 fold and 0.7 fold"}, {"measurement": "FOLD OVER BASAL", "setting": "[8]", "value": "0.1 fold and 0.2 fold"}, {"measurement": "FOLD OVER BASAL", "setting": "[9]; CALCRb", "value": "0.8 fold and 0.6 fold and 0.5 fold"}, {"measurement": "FOLD OVER BASAL", "setting": "[9]; GAL2", "value": "1.2 fold and 0.9 fold and 1.3 fold"}, {"measurement": "FOLD OVER BASAL", "setting": "[9]; GAL3", "value": "1.1 fold and 0.7 fold and 0.9 fold"}, {"measurement": "FOLD OVER BASAL", "setting": "[9]; HCTR2", "value": "1.1 fold and 0.8 fold and 0.6 fold"}, {"measurement": "FOLD OVER BASAL", "setting": "[9]; PK1", "value": "1.3 fold and 1.4 fold and 0.8 fold and 1.5 fold"}, {"measurement": "FOLD OVER BASAL", "setting": "[9]; PRRP", "value": "1 fold and 0.9 fold and 0.6 fold"}, {"measurement": "agonist activity at GPCRome (fold of basal)", "setting": "[9]; single concentration 5 μM, PRESTO-Tango, quadruplicate", "value": "agonist activity only at M4-, D2-, and H4-histamine receptors"}, {"measurement": "FOLD OVER BASAL", "setting": "[10]", "value": "1.3 fold and 1.6 fold and 1.5 fold"}, {"measurement": "FOLD OVER BASAL", "setting": "[11]", "value": "0.8 fold and 0.7 fold and 1.1 fold"}, {"measurement": "FOLD OVER BASAL", "setting": "[12]", "value": "1 fold and 1.2 fold and 0.9 fold and 1.3 fold"}, {"measurement": "FOLD OVER BASAL", "setting": "[13]", "value": "0.7 fold and 0.8 fold"}, {"measurement": "FOLD OVER BASAL", "setting": "[14]", "value": "1.3 fold and 0.9 fold and 0.8 fold"}, {"measurement": "FOLD OVER BASAL", "setting": "[15]", "value": "0.6 fold and 0.5 fold and 0.9 fold"}, {"measurement": "FOLD OVER BASAL", "setting": "[16]", "value": "0.5 fold and 0.8 fold"}, {"measurement": "FOLD OVER BASAL", "setting": "[17]", "value": "1.1 fold and 0.9 fold and 1 fold"}, {"measurement": "FOLD OVER BASAL", "setting": "[18]", "value": "0.8 fold and 1 fold and 0.6 fold"}, {"measurement": "FOLD OVER BASAL", "setting": "[19]", "value": "1 fold and 0.9 fold and 1.1 fold"}, {"measurement": "FOLD OVER BASAL", "setting": "[20]", "value": "0.6 fold and 0.3 fold"}, {"measurement": "FOLD OVER BASAL", "setting": "[21]", "value": "1.2 fold and 0.9 fold and 1.3 fold and 1 fold"}, {"measurement": "FOLD OVER BASAL", "setting": "[22]", "value": "1.1 fold and 1.3 fold and 1.4 fold"}, {"measurement": "FOLD OVER BASAL", "setting": "[23]", "value": "0.9 fold and 1.3 fold and 1.2 fold"}, {"measurement": "FOLD OVER BASAL", "setting": "[24]", "value": "1.1 fold and 0.9 fold and 1.4 fold"}, {"measurement": "food intake", "setting": "hM3Dq in LH-vGAT neurons", "value": "drives feeding in a dose-dependent fashion"}, {"measurement": "Ki", "setting": "hM4Di [25]", "value": 178, "unit": "nM"}, {"measurement": "higher binding affinity at hM4Di than at wildtype hM4", "setting": "hM4Di [25]; hM4Di vs hM4", "value": "> 10", "unit": "fold"}, {"measurement": "EC50", "setting": "hM4Di [26]", "value": 17.8, "unit": "nM"}]}]}
